Laboratory results published in US20250230193A1, “CYCLIC COMPOUND HAVING SELECTIVE KRAS INHIBITORY EFFECT ON HRAS AND NRAS” (CHUGAI SEIYAKU KABUSHIKI KAISHA, priority 2022, published 2025).
Where a SMILES comes first, the peptide text is derived from it. Bridges are numbered along the chain shown (N, C = ends). [ ]: non-standard residue; d: D form. The star is where a group is joined. hPhe(3-Cl-4-CF3) = N[C@@H](CCc1ccc(C(F)(F)F)c(Cl)c1)C(=O)O; NPrPhe(4-CF3) = CCCN[C@@H](Cc1ccc(C(F)(F)F)cc1)C(=O)O; NMeGly(cPent) = CN[C@H](C(=O)O)C1CCCC1; Pro(4,4-F2) = O=C(O)[C@@H]1CC(F)(F)CN1; NMeD = CN[C@@H](CC(=O)O)C(=O)O; NMeL = CN[C@@H](CC(C)C)C(=O)O; Morpholide = C1CN(*)CCO1; NMeA = CN[C@@H](C)C(=O)O; Ac5c = NC1(C(=O)O)CCCC1; Aze = O=C(O)[C@@H]1CCN1; Ac4c = NC1(C(=O)O)CCC1; Sar = CNCC(=O)O

Legend:
[1] = target: GDP-bound HRAS wild-type protein (Homo sapiens, UniProt P01112); assay: Binding to HRAS by surface plasmon resonance (SPR), Single Cycle Kinetics; conditions: for HRAS/KRAS (ratio of KD value with respect to HRAS to KD value with respect to KRAS) / HRAS/KRAS (ratio of KD value for HRAS to KD value for KRAS): GDP-bound HRAS wild-type vs GDP-bound KRAS wild-type
[2] = target: GDP-bound NRAS wild-type protein (Homo sapiens, UniProt P01111); assay: Binding to NRAS by surface plasmon resonance (SPR), Single Cycle Kinetics; conditions: for NRAS/KRAS (ratio of KD value with respect to NRAS to KD value with respect to KRAS) / NRAS/KRAS (ratio of KD value for NRAS to KD value for KRAS): GDP-bound NRAS wild-type vs GDP-bound KRAS wild-type
Sequence of GDP-bound NRAS wild-type protein (P01111 whole entry): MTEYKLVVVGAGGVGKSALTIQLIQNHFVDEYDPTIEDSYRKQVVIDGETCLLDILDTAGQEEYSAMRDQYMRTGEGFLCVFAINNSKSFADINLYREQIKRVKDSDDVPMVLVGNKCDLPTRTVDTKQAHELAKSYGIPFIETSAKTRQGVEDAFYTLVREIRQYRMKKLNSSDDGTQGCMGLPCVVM

Sequence of GDP-bound HRAS wild-type protein (P01112 whole entry): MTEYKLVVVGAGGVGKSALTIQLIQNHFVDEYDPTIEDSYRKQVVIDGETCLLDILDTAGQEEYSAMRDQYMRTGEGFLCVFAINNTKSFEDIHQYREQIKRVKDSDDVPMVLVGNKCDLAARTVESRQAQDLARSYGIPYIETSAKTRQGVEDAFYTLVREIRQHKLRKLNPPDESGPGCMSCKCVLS

CCO[C@@H]1C[C@H]2C(=O)NC3(CCC3)C(=O)N(C)[C@@H](C3CCCC3)C(=O)N(C)[C@H](C(=O)N3CCOCC3)CC(=O)N(CC)[C@@H](CC(C)C)C(=O)N[C@@H]([C@@H](C)CC)C(=O)N(C)CC(=O)N(C)[C@H]3CC(C)=CCN(C3=O)[C@@H](Cc3ccc(C(F)(F)F)cc3)C(=O)N(C)CC(=O)N[C@@H](CCc3cc(F)c(C(F)(F)F)c(F)c3)C(=O)N2C1 [PP1044]
HRAS/KRAS (ratio of KD value with respect to HRAS to KD value with respect to KRAS) ([1]; KD ratio, SPR): C (A compound having a KD ratio of 0.1 or more and less than 3 is denoted as C)
NRAS/KRAS (ratio of KD value with respect to NRAS to KD value with respect to KRAS) ([2]; KD ratio, SPR): C (A compound having a KD ratio of 0.1 or more and less than 3 is denoted as C)

CC[C@H](C)[C@@H]1NC(=O)[C@H](CC(C)C)N(C)C(=O)C[C@@H](C(=O)N2CCOCC2)N(C)C(=O)[C@H](C2CCCC2)N(C)C(=O)C2(CCCC2)NC(=O)[C@@H]2[C@@H](O)CCN2C(=O)[C@H](CCc2cc(F)c(C(F)(F)F)c(F)c2)NC(=O)CN(C)C(=O)[C@H](Cc2ccc(C(F)(F)F)cc2)N2CCCC[C@@H](C2=O)N(C)C(=O)CN(C)C1=O [PP0558]
HRAS/KRAS (ratio of KD value with respect to GDP-bound HRAS wild-type protein to KD value with respect to KRAS) ([1]; SPR): B (a compound having 3 or more and less than 10 is denoted as B)
NRAS/KRAS (ratio of KD value with respect to GDP-bound NRAS wild-type protein to KD value with respect to KRAS) ([2]; SPR): B (a compound having 3 or more and less than 10 is denoted as B)

CCCN(C)C(=O)[C@@H]1CC(=O)N(C)[C@@H](C2CC2)C(=O)N[C@@H]([C@@H](C)CC)C(=O)N(C)CC(=O)N(C)[C@H]2C/C=C\CCN(C2=O)[C@@H](Cc2ccc(C(F)(F)F)cc2)C(=O)N(C)CC(=O)N[C@@H](CCc2ccc(C(F)(F)F)c(OC)c2)C(=O)N2C[C@@H](C)C[C@H]2C(=O)NC2(CCC2)C(=O)N(C)[C@@H](C2CCCC2)C(=O)N1C [PP2070]
HRAS/KRAS (ratio of KD value with respect to HRAS to KD value with respect to KRAS) ([1]; SPR): A (a compound having 10 or more and less than 20 is denoted as A)
NRAS/KRAS (ratio of KD value with respect to NRAS to KD value with respect to KRAS) ([2]; SPR): A (a compound having 10 or more and less than 20 is denoted as A)

CC[C@H](C)[C@@H]1NC(=O)[C@H](CC(C)C)N(C)C(=O)C[C@@H](C(=O)N2CCOCC2)N(C)C(=O)[C@H](C2CCCC2)N(C)C(=O)C2(CCCC2)NC(=O)[C@@H]2CCCN2C(=O)[C@H](CCc2ccc(C(F)(F)F)c(Cl)c2)NC(=O)CN(C)C(=O)[C@H](Cc2ccc(F)cc2)N2CCCC[C@@H](C2=O)N(C)C(=O)CN(C)C1=O [PP0530]
HRAS/KRAS (ratio of KD value with respect to GDP-bound HRAS wild-type protein to KD value with respect to KRAS) ([1]; SPR): B (a compound having 3 or more and less than 10 is denoted as B)
NRAS/KRAS (ratio of KD value with respect to GDP-bound NRAS wild-type protein to KD value with respect to KRAS) ([2]; SPR): C (A compound having a KD ratio of 0.1 or more and less than 3 is denoted as C)

CCCN1C(=O)CN(C)C(=O)CN(C)C(=O)[C@H]([C@@H](C)CC)NC(=O)[C@H](CC(C)C)N(C)C(=O)C[C@@H](C(=O)N2CCOCC2)NC(=O)[C@H](C2CCCC2)N(C)C(=O)C2(CCC2)NC(=O)[C@@H]2CC(F)(F)CN2C(=O)[C@H](CCc2ccc(C(F)(F)F)c(Cl)c2)NC(=O)CN(C)C(=O)[C@@H]1Cc1ccc(C(F)(F)F)cc1 [PP0322] ([NMeL]I[Sar][Sar][NPrPhe(4-CF3)][Sar][hPhe(3-Cl-4-CF3)][Pro(4,4-F2)][Ac4c][NMeGly(cPent)]D-Morpholide; lactam N-11)
HRAS/KRAS (ratio of KD for GDP-bound HRAS wild-type to KD for KRAS) ([1]; SPR): C (A compound having a KD ratio of 0.1 or more and less than 3 is denoted as C)
NRAS/KRAS (ratio of KD for GDP-bound NRAS wild-type to KD for KRAS) ([2]; SPR): B (a compound having 3 or more and less than 10 is denoted as B)

CCC[C@H]1C(=O)N[C@@H]([C@@H](C)CC)C(=O)N2CCC[C@H]2C(=O)N(C)[C@H]2C/C=C\CCN(C2=O)[C@@H](Cc2ccc(C(F)(F)F)cc2)C(=O)N(C)CC(=O)N[C@@H](CCc2ccc(C(F)(F)F)c(OC)c2)C(=O)N2C[C@@H](C)C[C@H]2C(=O)N(C)C2(CCC2)C(=O)N(C)[C@@H](C2CCCC2)C(=O)N(C)[C@H](C(=O)N(C)C)CC(=O)N1C [PP2362]
HRAS/KRAS (ratio of KD value with respect to HRAS to KD value with respect to KRAS) ([1]; SPR): A (a compound having 10 or more and less than 20 is denoted as A)
NRAS/KRAS (ratio of KD value with respect to NRAS to KD value with respect to KRAS) ([2]; SPR): A (a compound having 10 or more and less than 20 is denoted as A)

CCO[C@@H]1C[C@H]2C(=O)NC3(CC(C)(C)C3)C(=O)N(C)[C@@H](C3CCCC3)C(=O)N(C)[C@H](C(=O)N(C)C)CC(=O)N(C)[C@@H](CC(C)C)C(=O)N[C@@H]([C@@H](C)CC)C(=O)N(C)CC(=O)N(C)[C@H]3C/C=C\CCN(C3=O)[C@@H](Cc3ccc(C(F)(F)F)cc3)C(=O)N(C)CC(=O)N[C@@H](CCc3cc(F)c(Cl)c(F)c3)C(=O)N2C1 [PP1761]
HRAS/KRAS (ratio of KD value for HRAS to KD value for KRAS) ([1]; KD ratio, SPR): A (a compound having 10 or more and less than 20 is denoted as A)
NRAS/KRAS (ratio of KD value for NRAS to KD value for KRAS) ([2]; KD ratio, SPR): A (a compound having 10 or more and less than 20 is denoted as A)

CCO[C@@H]1C[C@H]2C(=O)NC3(CC(C)(C)C3)C(=O)N(C)[C@@H](C3CCCC3)C(=O)N(C)[C@H](C3CCC3)CC(=O)N(C)[C@@H](CC3CC3)C(=O)N[C@@H]([C@@H](C)CC)C(=O)N(C)CC(=O)N(C)[C@H]3C/C=C\CCN(C3=O)[C@@H](Cc3ccc(C(F)(F)F)cc3)C(=O)N(C)CC(=O)N[C@@H](CCc3cc(F)c(C(F)(F)F)c(F)c3)C(=O)N2C1 [PP1635]
HRAS/KRAS (ratio of KD value for HRAS to KD value for KRAS) ([1]; KD ratio, SPR): A (a compound having 10 or more and less than 20 is denoted as A)
NRAS/KRAS (ratio of KD value for NRAS to KD value for KRAS) ([2]; KD ratio, SPR): B (a compound having 3 or more and less than 10 is denoted as B)

CCO[C@@H]1C[C@H]2C(=O)NC3(CCC3)C(=O)N(C)[C@@H](C3CCCC3)C(=O)N(C)[C@H](C(=O)N(C)CC)CC(=O)N(C)[C@@H](CC3CCC3)C(=O)N[C@@H]([C@@H](C)CC)C(=O)N(C)CC(=O)N(C)[C@H]3C/C=C\CCN(C3=O)[C@@H](Cc3ccc(C(F)(F)F)cc3)C(=O)N(C)CC(=O)N[C@@H](CCc3ccc(Cl)c(Cl)c3)C(=O)N2C1 [PP2824]
HRAS/KRAS (ratio of KD value with respect to GDP-bound HRAS wild-type protein to KD value with respect to KRAS) ([1]; class symbols): A (a compound having 10 or more and less than 20 is denoted as A)
NRAS/KRAS (ratio of KD value with respect to GDP-bound NRAS wild-type protein to KD value with respect to KRAS) ([2]; class symbols): A (a compound having 10 or more and less than 20 is denoted as A)

CCCN1C(=O)[C@@H]2CCN2C(=O)[C@H](C)N(C)C(=O)[C@H]([C@@H](C)CC)NC(=O)[C@H](CC(C)C)N(C)C(=O)C[C@@H](C(=O)N2CCOCC2)N(C)C(=O)[C@H](C2CCCC2)N(C)C(=O)C2(CCCC2)NC(=O)CN(C)C(=O)[C@H](CCc2ccc(C(F)(F)F)c(Cl)c2)NC(=O)CN(C)C(=O)[C@@H]1Cc1ccc(C(F)(F)F)cc1 [PP0287] ([NMeL]I[NMeA][Aze][NPrPhe(4-CF3)][Sar][hPhe(3-Cl-4-CF3)][Sar][Ac5c][NMeGly(cPent)][NMeD]-Morpholide; lactam N-11)
HRAS/KRAS (ratio of KD for GDP-bound HRAS wild-type to KD for KRAS) ([1]; SPR): C (A compound having a KD ratio of 0.1 or more and less than 3 is denoted as C)
NRAS/KRAS (ratio of KD for GDP-bound NRAS wild-type to KD for KRAS) ([2]; SPR): C (A compound having a KD ratio of 0.1 or more and less than 3 is denoted as C)

CCCN(C)C(=O)[C@@H]1CC(=O)N(C)[C@@H](CC2CC2)C(=O)N[C@@H]([C@@H](C)CC)C(=O)N(C)CC(=O)N(C)[C@H]2C/C=C\CCN(C2=O)[C@@H](Cc2ccc(C(F)(F)F)cc2)C(=O)N(C)CC(=O)N[C@@H](CCc2cc(F)c(C(F)(F)F)c(F)c2)C(=O)N2C[C@H](OCC)C[C@H]2C(=O)NC2(CCC2)C(=O)N(C)[C@@H](C2CCCC2)C(=O)N1C [PP1388]
HRAS/KRAS (ratio of KD value for GDP-bound HRAS wild-type protein to KD value for KRAS) ([1]; SPR, KD ratio class): B (a compound having 3 or more and less than 10 is denoted as B)
NRAS/KRAS (ratio of KD value for GDP-bound NRAS wild-type protein to KD value for KRAS) ([2]; SPR, KD ratio class): A (a compound having 10 or more and less than 20 is denoted as A)
